In one data set the target is T1, human 5HT1A receptor (Homo sapiens, UniProt P08908).
T1 construct: expressed in transfected cells; host or cells: HEK cells (G418 selection)
T1 sequence (P08908 1-422): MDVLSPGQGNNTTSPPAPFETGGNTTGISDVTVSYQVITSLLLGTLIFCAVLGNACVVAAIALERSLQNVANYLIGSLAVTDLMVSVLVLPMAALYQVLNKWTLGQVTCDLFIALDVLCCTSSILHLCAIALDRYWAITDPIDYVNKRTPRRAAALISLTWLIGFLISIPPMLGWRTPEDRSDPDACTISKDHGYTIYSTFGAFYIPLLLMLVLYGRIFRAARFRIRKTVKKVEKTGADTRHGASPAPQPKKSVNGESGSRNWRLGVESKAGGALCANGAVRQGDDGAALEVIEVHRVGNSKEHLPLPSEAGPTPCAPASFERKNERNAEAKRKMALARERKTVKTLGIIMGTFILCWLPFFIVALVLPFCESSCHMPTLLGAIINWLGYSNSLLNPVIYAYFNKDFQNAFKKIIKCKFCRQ
Put plainly: h5HT1A receptors: [3H]8-OH-DPAT binding. Particulars: read-out: 5-HT1A [^3H] 8—OH DPAT Ki(nM) ± SEM. As to the method: Human embryonic kidney cells expressing the human 5HT1A receptor (HEK-h5HT1A) were used. The cells were grown to confluence in DMEM containing 10% FetalClone® (abbreviated as FC—source: HyClone), 0.05% penicillin-streptomycin (pen-strep), and 300 μg/mL of Geneticin (G418). The cells were scraped from 150 mm plates into phosphate-buffered saline and centrifuged at 270×g, 1200 rpm, for 10 minutes. The cell pellet was homogenized in 50 mM Tris-HCl (pH 7.7) with a Polytron, and centrifuged at 27,000×g. […] The final pellet was resuspended at 0.5 mg protein/mL in assay buffer (25 mM Tris-HCl, pH 7.4, containing 100 μM ascorbic acid and 10 μM pargyline). The assay was performed in duplicate in a 96-well plate. Serial dilutions of test compounds were made using the Biomek 2000 robotics system. […] Nonspecific binding was determined with 1.0 μM dihydroergotamine. The plates were incubated at room temperature for 60 minutes and then filtered through polyethylenimine-soaked (0.05%) “A” filtermats on a Tomtec cell harvester. The filters were washed with cold 50 mM Tris buffer (pH 7.7) for 6 sec, dried, spotted with scintillation cocktail, and counted for 2 minutes after a 4 hour delay on a Wallac Betaplate 1205 liquid scintillation counter.

The target of data set [1] is T2, VMAT2 (Homo sapiens, UniProt Q05940). Put plainly: hVMAT2 [3H]DTBZ ([3H]DHTB) binding assay. Also noted: expressed in transfected cells; host or cells: HEK (human embryonic kidney) cells.
Another data set concerns the target T3, human 5HT2A receptor (Homo sapiens, UniProt P28223).
T3 construct: expressed in transfected cells; host or cells: HEK cells
Nature of the data set: h5HT2A receptors: [125I]DOI binding. As for the experimental part: Method: Human embryonic kidney cells expressing the human 5HT2A receptor (HEK-h5HT2A) or human 5HT2C receptor (HEK-h5HT2C) were used. The cells were grown until confluent on 15 cm plates. Media was removed, cells were washed with phosphate-buffered saline (PBS), scraped into 2 ml PBS and frozen at −20° C. until needed. Cell suspension was thawed, 10 ml assay buffer (50 mM Tris, pH 7.4 at 37° C., with 0.1% ascorbic acid and 5 mM CaCl2) was added per plate of cells, and polytronned at setting 6 for 5 sec. The homogenate was centrifuged at 15,500 rpm for 20 min. […] The final pellet was resuspended in 2 ml buffer/plate of cells.
The reaction was incubated for 1 hour at 37° C., and terminated by filtration through Wallac A filtermats presoaked in 0.05% polyethylenimine using a Tomtec 96-well harvester. Radioactivity remaining on filters was counted in a Wallac betaplate reader. IC50 values were calculated using GraphPad Prism. IC50 values were converted using the Cheng-Prusoff equation.

The target of data set [2] is T2, VMAT2. Put plainly: hVMAT2 5HT Uptake. Also noted: expressed in transfected cells; host or cells: HEK (human embryonic kidney) cells. The format is biochemical. A digest of the protocol: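 Membranes came from HEK cells expressing human VMAT2, homogenized in 0.32 M sucrose with protease inhibitors and spun at 800×g then 10,000×g. The pellet was osmotically shocked in ice-cold water, restored with Tris pH 7.4, sodium potassium tartrate and MgSO4, and collected at 20,000×g.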

Data set [3] addresses T4, recombinant human norepinephrine transporter (hNET) (Homo sapiens, UniProt P23975).
T4 construct: expressed in transfected cells; host or cells: HEK cells
Put plainly: [125I]RTI-55 binding, HEK-hNET. The note with it: used in Cheng-Prusoff equation. As to the method:
(§1) Standard methods of assessing [^3H]neurotransmitter uptake and [^125I]RTI-55 binding using HEK cell lines are described in Eshleman et al, J Pharmacol Exp Therap 289, 877-885 (1999), which is incorporated by reference herein and were as follows:
(§2) Compounds were weighed and dissolved in DMSO to make a stock solution of 10 mM. An initial dilution to 50 μM in assay buffer or water for binding, or to 1 mM in assay buffer or water for uptake, was made. Subsequent dilutions were made with assay buffer supplemented with DMSO, maintaining a final concentration of 0.1% DMSO. Pipetting was conducted using a Biomek 2000 robotic workstation.
(§3) Cells were grown to 100% confluence on 150 mm diameter tissue culture dishes and served as the tissue source. Cell membranes were prepared as follows. Medium was poured off the plate, and the plate was washed with 10 ml of calcium- and magnesium-free phosphate-buffered saline. Lysis buffer (10 ml; 2 mM HEPES with 1 mM EDTA) was added. After 10 min, lysed cells were scraped from plates, transferred into centrifuge tubes, and centrifuged at 30,000×g for 20 min. The supernatant fluid was removed, and the pellet was resuspended in 12-32 ml of sucrose (0.32 M) using a Polytron at setting 7 for 10 sec. The resuspension volume depended on the density of binding sites within a cell line and was chosen to reflect binding of 10% or less of the total radioactivity. […]

The target of data set [4] is T5, recombinant human dopamine transporter (hDAT) (Homo sapiens, UniProt Q01959).
T5 construct: expressed in transfected cells; host or cells: HEK cells
Put plainly: [125I]RTI-55 binding, HEK-hDAT. Particulars: used in Cheng-Prusoff equation. As for the experimental part: as §1, §2, §3

Data set [5] addresses T6, recombinant human serotonin transporter (hSERT) (Homo sapiens, UniProt P31645).
T6 construct: expressed in transfected cells; host or cells: HEK cells
Put plainly: [125I]RTI-55 binding, HEK-hSERT. Particulars: used in Cheng-Prusoff equation. As to the method:
as §1, §2, §3

The mark [6] stands for this setting: cells printed in μM under a head in nM.
The mark [7] stands for this setting: cells printed in μM under a head in nM, HEK-hVMAT2 membranes.
The mark [8] stands for this setting: cells printed in μM under a head in nM, read-out: 5-HT2A [^125I]DOI Ki (nM) ± SEM.
Where [9] appears, read: [^3H]5HT uptake, HEK-hVMAT2 preparation, read-out: hVMAT2 5HT Uptake IC50 (nM) ± SEM.
Where [10] appears, read: cells printed in μM under a head in nM, read-out: hVMAT2 5HT Uptake IC50 (nM) ± SEM.
[11] abbreviates: HEK-hVMAT2 membranes, series 5 ligands tested as hydrochloride salts.
[12] abbreviates: HEK-h5HT2A homogenate, read-out: 5-HT2A [^125I]DOI Ki (nM) ± SEM.

The record followed here is patent US9546151B2, “VMAT inhibitory compounds” (Oregon Health & Science University, priority 2014, dated 2017).

Molecules are shown by their SMILES. Where two headings read alike, the source gives them in different places.

T3 sequence (P28223 whole entry): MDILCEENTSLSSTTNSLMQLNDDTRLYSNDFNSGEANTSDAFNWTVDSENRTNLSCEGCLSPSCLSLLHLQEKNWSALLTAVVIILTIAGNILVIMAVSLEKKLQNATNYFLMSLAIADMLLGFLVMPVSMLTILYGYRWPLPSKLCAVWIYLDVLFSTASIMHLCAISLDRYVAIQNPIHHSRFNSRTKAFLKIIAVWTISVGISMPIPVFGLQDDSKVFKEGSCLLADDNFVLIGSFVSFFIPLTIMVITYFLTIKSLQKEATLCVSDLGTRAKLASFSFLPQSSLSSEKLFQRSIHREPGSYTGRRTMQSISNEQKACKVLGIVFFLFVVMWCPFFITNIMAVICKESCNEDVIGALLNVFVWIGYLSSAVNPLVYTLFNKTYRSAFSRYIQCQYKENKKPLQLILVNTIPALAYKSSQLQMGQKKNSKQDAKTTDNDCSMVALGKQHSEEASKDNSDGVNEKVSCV
T2 sequence (Q05940 whole entry): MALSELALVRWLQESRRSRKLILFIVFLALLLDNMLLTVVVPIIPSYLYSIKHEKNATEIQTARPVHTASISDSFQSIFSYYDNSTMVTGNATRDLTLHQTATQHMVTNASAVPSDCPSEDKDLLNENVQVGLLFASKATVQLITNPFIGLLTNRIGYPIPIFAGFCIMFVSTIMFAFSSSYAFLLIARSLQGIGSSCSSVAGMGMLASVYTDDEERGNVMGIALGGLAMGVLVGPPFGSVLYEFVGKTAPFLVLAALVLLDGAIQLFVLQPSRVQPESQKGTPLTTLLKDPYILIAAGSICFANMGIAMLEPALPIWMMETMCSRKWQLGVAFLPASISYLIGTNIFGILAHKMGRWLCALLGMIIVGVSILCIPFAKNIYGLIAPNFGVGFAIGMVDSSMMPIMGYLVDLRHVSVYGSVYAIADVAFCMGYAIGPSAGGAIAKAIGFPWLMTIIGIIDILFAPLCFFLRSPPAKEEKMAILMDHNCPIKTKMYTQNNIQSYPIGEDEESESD
T6 sequence (P31645 whole entry): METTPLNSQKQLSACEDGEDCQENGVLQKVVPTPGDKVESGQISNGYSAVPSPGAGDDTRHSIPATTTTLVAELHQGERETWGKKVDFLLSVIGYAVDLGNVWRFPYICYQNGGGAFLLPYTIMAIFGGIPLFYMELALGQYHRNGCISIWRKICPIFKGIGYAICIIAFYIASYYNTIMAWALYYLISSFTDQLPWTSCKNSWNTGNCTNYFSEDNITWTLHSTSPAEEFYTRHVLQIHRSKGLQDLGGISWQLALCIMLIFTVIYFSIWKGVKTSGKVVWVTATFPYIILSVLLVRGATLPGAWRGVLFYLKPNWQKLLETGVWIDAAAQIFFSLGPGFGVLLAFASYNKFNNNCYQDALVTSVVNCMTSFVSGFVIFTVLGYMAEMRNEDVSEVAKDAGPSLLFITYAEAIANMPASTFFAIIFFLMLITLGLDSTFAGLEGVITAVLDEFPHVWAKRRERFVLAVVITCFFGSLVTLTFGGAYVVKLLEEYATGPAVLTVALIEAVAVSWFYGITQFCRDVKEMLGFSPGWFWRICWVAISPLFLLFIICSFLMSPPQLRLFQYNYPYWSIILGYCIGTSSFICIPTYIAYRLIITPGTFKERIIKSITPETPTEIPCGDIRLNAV
T4 sequence (P23975 whole entry): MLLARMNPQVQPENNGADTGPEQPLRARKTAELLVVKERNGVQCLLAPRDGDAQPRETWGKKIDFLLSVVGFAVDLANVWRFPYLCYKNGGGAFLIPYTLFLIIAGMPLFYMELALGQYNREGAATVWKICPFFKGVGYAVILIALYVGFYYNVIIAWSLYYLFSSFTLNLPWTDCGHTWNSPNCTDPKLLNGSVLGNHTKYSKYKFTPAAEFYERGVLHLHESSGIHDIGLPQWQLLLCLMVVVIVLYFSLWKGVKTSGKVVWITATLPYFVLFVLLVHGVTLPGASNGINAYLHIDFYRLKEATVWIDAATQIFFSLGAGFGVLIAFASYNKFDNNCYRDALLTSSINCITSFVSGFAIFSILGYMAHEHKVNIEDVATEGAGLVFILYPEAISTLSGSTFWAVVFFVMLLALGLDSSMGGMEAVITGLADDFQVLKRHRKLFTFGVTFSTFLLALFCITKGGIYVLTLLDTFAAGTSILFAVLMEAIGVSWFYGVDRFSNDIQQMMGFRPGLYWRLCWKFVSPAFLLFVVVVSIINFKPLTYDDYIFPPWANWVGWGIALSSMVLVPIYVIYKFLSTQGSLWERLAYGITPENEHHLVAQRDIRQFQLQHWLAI
T5 sequence (Q01959 whole entry): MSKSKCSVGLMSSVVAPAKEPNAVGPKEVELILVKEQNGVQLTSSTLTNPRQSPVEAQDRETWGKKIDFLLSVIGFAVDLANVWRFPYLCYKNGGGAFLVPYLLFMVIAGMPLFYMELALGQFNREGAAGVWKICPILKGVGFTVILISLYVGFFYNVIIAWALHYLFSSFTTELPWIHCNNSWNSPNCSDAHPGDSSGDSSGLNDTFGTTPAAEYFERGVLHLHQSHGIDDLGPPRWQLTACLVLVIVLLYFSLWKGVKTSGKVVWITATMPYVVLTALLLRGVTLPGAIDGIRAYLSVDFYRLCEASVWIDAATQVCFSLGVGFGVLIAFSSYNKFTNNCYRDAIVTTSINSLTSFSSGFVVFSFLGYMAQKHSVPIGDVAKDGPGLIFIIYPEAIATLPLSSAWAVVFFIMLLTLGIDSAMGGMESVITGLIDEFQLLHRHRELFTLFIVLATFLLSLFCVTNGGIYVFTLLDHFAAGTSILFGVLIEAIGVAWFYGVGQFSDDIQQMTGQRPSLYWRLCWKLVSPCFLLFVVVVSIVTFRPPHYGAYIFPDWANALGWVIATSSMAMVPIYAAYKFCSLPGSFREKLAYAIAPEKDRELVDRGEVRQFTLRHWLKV

`CCOC(=O)[C@@H]1CN(CCn2c(=O)[nH]c3ccccc3c2=O)CC[C@@H]1c1ccc(C(F)(F)F)cc1` (racemic) [Compound 5f, (±) syn-ethyl 1-(2-(2,4-dioxo-1,2-dihydroquinazolin-3(4H)-yl)ethyl)-4-(4-(trifluoromethyl)phenyl)piperidine-3-carboxylate]: the Ki on human 5HT1A receptor (setting [6]), on VMAT2 [1] (setting [7]) and at human 5HT2A receptor (setting [8]) was greater than 10 µM throughout. Also, on VMAT2 [2] (setting [9]), the IC50 came to 416 ± 43 nM.
On to `CCOC(=O)[C@@H]1CN(CCn2c(=O)[nH]c3ccccc3c2=O)CC[C@@H]1c1cccc(C(F)(F)F)c1` (racemic) [Compound 5g, (±) syn-ethyl 1-(2-(2,4-dioxo-1,2-dihydroquinazolin-3(4H)-yl)ethyl)-4-(3-(trifluoromethyl)phenyl)piperidine-3-carboxylate], for which the Ki on human 5HT1A receptor (setting [6]), on VMAT2 [1] (setting [7]) and at human 5HT2A receptor (setting [8]) was greater than 10 µM throughout. Moreover, at VMAT2 [2] (setting [9]), the half-maximal inhibitory concentration (IC50) came to 166 ± 6 nM.
`CCOC(=O)[C@@H]1CN(CCn2c(=O)[nH]c3ccccc3c2=O)CC[C@@H]1c1ccc(C(C)O)cc1` (mixture of isomers) [Compound 5p, (±) syn-ethyl 1-(2-(2,4-dioxo-1,2-dihydroquinazolin-3(4H)-yl)ethyl)-4-(4-(1-hydroxyethyl)phenyl)piperidine-3-carboxylate] yielded a melting point of 187 to 188 °C. Besides, the Ki at human 5HT1A receptor (setting [6]) is greater than 10 µM. Further, the Ki on VMAT2 [1] (setting [7]) was greater than 9 µM. Further, at human 5HT2A receptor (setting [8]), the Ki was greater than 10 µM. The IC50 on VMAT2 [2] (setting [10]) was greater than 8000 nM.
In the case of `CC1CN(CCn2c(=O)[nH]c3ccccc3c2=O)CCC1C(=O)c1ccc(F)cc1` (racemic) [R1=H, R2=α/β-CH3], the values for the inhibitory constant (Ki) on human 5HT1A receptor (setting [6]), at VMAT2 [1] (setting [11]) and at human 5HT2A receptor (setting [12]) were greater than 10 µM, 0.276 ± 0.024 µM and 0.0459 ± 0.0124 µM, respectively. Besides, the IC50 on VMAT2 [2] (setting [9]) was 333 ± 106 nM.
For the compound `CC1CN(CCn2c(=O)[nH]c3ccccc3c2=O)CCC1C(=O)c1ccc(F)cc1` (single isomer, unassigned) [R1=H, R2=α-CH3], the Ki on human 5HT1A receptor (setting [6]) is greater than 5 µM; at VMAT2 [1] (setting [7]), greater than 6.4 µM; on human 5HT2A receptor (setting [12]), 0.0198 ± 0.0058 µM. In addition, the IC50 on VMAT2 [2] (setting [10]) was greater than 7300 nM.
In the same order, the values of `O=C(c1ccc(F)cc1)C1CCN(CCn2c(=O)[nH]c3ccc(Br)cc3c2=O)CC1` [R1=Br, R2=H] are greater than 2 µM, greater than 3 µM, 0.0008 ± 0.00024 µM and greater than 2000 nM.
In the case of `CCOC(=O)C1=C(c2ccccc2)CCN(CCn2c(=O)[nH]c3ccccc3c2=O)C1` [R1=CO2-Et, 3,4-bond=ene], the Ki on human 5HT1A receptor (HEK-h5HT1A homogenate) was greater than 0.0063 µM; at VMAT2 [1] (read-out: hVMAT2 [^3H]DTBZ Ki (nM) ± SEM) it was 0.874 ± 0.276 µM; on human 5HT2A receptor, 0.081 ± 0.026 µM. Besides, the IC50 on VMAT2 [2] came to 66 ± 15 nM.
As for `O=c1[nH]c2ccccc2c(=O)n1CCN1CC=C(c2ccccc2)CC1` [R1=H, 3,4-bond=ene], the Ki on human 5HT1A receptor (HEK-h5HT1A homogenate) was 0.197 ± 0.015 µM; at VMAT2 [1] (setting [11]), 0.821 ± 0.197 µM; on human 5HT2A receptor (setting [12]), 0.139 ± 0.027 µM. At VMAT2 [2], this compound had an IC50 of 3.9 ± 0.5 nM.
Consider `COC(=O)[C@H]1[C@@H](c2ccc(I)cc2)C[C@@H]2CC[C@H]1N2C` [[^125I]RTI-55], for which the Kd in data set [3] is 12.1 nM; in data set [4] it was 1.2 nM; in data set [5], 0.98 nM.
